{"source": "paper PMC11909988", "about": "(BMC Cancer, 2025)", "key": {"[1]": {"tested_on": "IDH1-R132H mutant U87MG cells", "assay": "D-2-HG in cell culture supernatant measured with D2HGlo, mutant cells", "assay_type": "cell-based, human", "conditions": "48 h"}, "[2]": {"tested_on": "IDH1 wildtype U87MG cells", "assay": "FRET imaging of D2HGlo cellular probes in IDH1 wildtype glioma cells", "assay_type": "cell-based, human", "conditions": "for acute change of Cyto-D2HGlo FRET ratio: approximately 5.5 min"}, "[3]": {"tested_on": "IDH1-R132H mutant U87MG cells", "assay": "FRET imaging of D2HGlo cellular probes in IDH1 mutant glioma cells", "assay_type": "cell-based, human"}, "[4]": {"tested_on": "mutant IDH1", "conditions": "newly diagnosed and advanced cancer; cited from earlier work"}, "[5]": {"target": "D2HGlo (Achromobacter denitrificans, UniProt A0A6N0JVZ6)", "sequence (A0A6N0JVZ6 1-238, other chains not shown)": "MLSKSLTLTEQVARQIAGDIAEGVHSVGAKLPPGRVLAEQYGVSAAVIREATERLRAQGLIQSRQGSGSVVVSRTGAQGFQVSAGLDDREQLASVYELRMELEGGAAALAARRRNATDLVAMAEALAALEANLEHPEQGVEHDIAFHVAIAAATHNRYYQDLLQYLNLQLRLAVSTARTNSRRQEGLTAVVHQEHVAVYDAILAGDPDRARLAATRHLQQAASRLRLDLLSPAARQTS", "assay": "Ligand binding and selectivity of purified D2HGlo", "conditions": "for response of D2HGlo (FRET ratio) to metabolite: concentrations up to 100 µM"}}, "note": "Entries after “also recorded” stand apart in the source; their conditions may differ."}
{"smiles": "O=CC[C@@H](O)[C@H](O)[C@H](O)CO", "note": "[2-DG, 2-Deoxy-D-glucose]", "values": [{"measurement": "concentration of D-2-HG in the supernatant", "setting": "[1]; 2-DG 10 mM", "value": "reduced to levels comparable to untreated wildtype cells"}, {"measurement": "acute change of Cyto-D2HGlo FRET ratio", "setting": "[2]; 2-DG 10 mM", "value": "unaffected"}, {"measurement": "acute change of Cyto-D2HGlo FRET ratio", "setting": "[3]; 2-DG 10 mM, approximately 5.5 min", "value": "reduced the FRET ratio"}]}
{"smiles": "N#Cc1ccnc(N2C(=O)CC[C@H]2C(=O)N(c2cncc(F)c2)[C@H](C(=O)NC2CC(F)(F)C2)c2ccccc2Cl)c1", "note": "[AG-120]", "values": [{"measurement": "D-2-HG concentration of supernatant", "setting": "[1]; AG-120 3 µM", "value": "2.88 ± 0.59", "unit": "µM"}, {"measurement": "2-HG levels in patients", "setting": "[4]", "value": "reduction of 2-HG to levels resembling those seen in healthy populations"}, {"measurement": "D-2-HG levels (FRET ratio)", "setting": "[2]; AG-120 3 µM, 48 h", "value": "no effect"}, {"measurement": "average FRET ratio of Cyto-, Nuc- and Mito-D2HGlo (D-2-HG level)", "setting": "[3]; AG-120 3 µM, 48 h", "value": "reduced the average FRET ratio in all three compartments in IDH1 mutant cells to levels comparable with IDH1 wildtype cells; also recorded: decrease to levels resembling those found in IDH1 wildtype cells"}, {"measurement": "acute change of Cyto-D2HGlo FRET ratio", "setting": "[3]; AG-120 10 μM, 15 min following drug addition", "value": "did not result in acute changes"}]}
{"smiles": "CN(C)c1ccc(C2Nc3ccc4ccccc4c3C3=C2C(=O)CC(C)(C)C3)cc1Br", "note": "(stereo not drawn) [Compound 968]", "values": [{"measurement": "D-2-HG accumulation in cell culture supernatants", "setting": "[1]; Compound 968 1 µM, wildtype and mutant cells (Fig. 5d)", "value": "nor did it effect D-2-HG accumulation"}, {"measurement": "acute change of Cyto-D2HGlo FRET ratio", "setting": "[2]; Compound 968 1 µM", "value": "did not elicit any changes"}, {"measurement": "acute change of Cyto-D2HGlo FRET ratio", "setting": "[3]; Compound 968 1 µM, approximately 5.5 min", "value": "did not elicit any changes"}]}
{"smiles": "O=C(O)CN(CCN(CC(=O)O)CC(=O)O)CC(=O)O", "note": "[EDTA]", "values": [{"measurement": "effect on D-2-HG induced FRET response of D2HGlo", "setting": "[5]; 1 mM EDTA in titration buffer", "value": "prevents D-2-HG induced changes to FRET ratio"}]}
{"smiles": "N[C@@H](CCC(=O)O)C(=O)O", "note": "[Glutamate, L-glutamic acid]", "values": [{"measurement": "response of D2HGlo (FRET ratio) to metabolite", "setting": "[5]", "value": "did not respond"}]}
{"smiles": "C[C@H](O)C(=O)[O-].[Na+]", "note": "[Lactate, sodium L-lactate]", "values": [{"measurement": "response of D2HGlo (FRET ratio) to metabolite", "setting": "[5]", "value": "did not respond"}]}
{"smiles": "CC(=O)C(=O)O", "note": "[Pyruvate, Sodium pyruvate]", "values": [{"measurement": "response of D2HGlo (FRET ratio) to metabolite", "setting": "[5]", "value": "did not respond"}]}
